Experiments:
[1] = Inhibition of GST-fused HCMV protease expressed in Escherichia coli by scintillation counting; parameters: species or system Human betaherpesvirus 5
M109 = assay: Cytotoxicity against mouse M109 cells by XTT assay; type: functional, cell-based

| SMILES | IC50 [1] [µM] | IC50 (M109) [µM] |
| --- | --- | --- |
| Cc1cc(O)c2cc3c(c(O)c2c1)C(=O)c1ccc([C@@H]2C[C@H](O[C@H]4CC[C@H](O[C@H]5C[C@@H](O[C@H]6CC[C@H](O)[C@H](C)O6)[C@H](O)[C@H](C)O5)[C@H](C)O4)[C@@H](O)[C@@H](C)O2)c(O)c1C3=O | 52 | 12 |
| Cc1cc(O)c2cc3c(c(O)c2c1)C(=O)c1ccc([C@H]2C[C@@H](O[C@@H]4CC[C@@H](O)[C@@H](C)O4)[C@H](O)[C@@H](C)O2)c(O)c1C3=O [QUANOLIRONE II] | 35 | 89 |
| Cc1cc(O)c2cc3c(c(O)c2c1)C(=O)c1ccc([C@H]2C[C@@H](O[C@H]4CC[C@H](O[C@H]5C[C@@H](O)[C@H](O)[C@@H](C)O5)[C@H](C)O4)[C@H](O)[C@@H](C)O2)c(O)c1C3=O [QUANOLIRONE I] | 14 | 14 |

Reference: ChEMBL document CHEMBL1151309, “Quanolirones I and II, two new human cytomegalovirus protease inhibitors produced by Streptomyces sp. WC76535” (J Nat Prod, 1998)
